Experiment [1] addresses T1, human sphingosine-1-phosphate receptor 1 (S1P1) (Homo sapiens, UniProt P21453). The experiment is described as follows: Inhibition of cAMP production (HTRF cAMP HiRange), S1P1 CHO-K1 cells. Format: cell-based. A digest of the protocol: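 CHO-K1 cells co-expressing human S1P1 (C-terminal ProLink tag) and EA-β-arrestin2, plated overnight; after 30 min compound incubation at 37 °C, intracellular cAMP measured by HTRF TR-FRET following 1 h at room temperature. Values normalized to fingolimod.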
(Cyclic AMP is a second messenger, typically raised through Gs and lowered through Gi signalling.)
Target sequence in this assay (P21453 whole entry): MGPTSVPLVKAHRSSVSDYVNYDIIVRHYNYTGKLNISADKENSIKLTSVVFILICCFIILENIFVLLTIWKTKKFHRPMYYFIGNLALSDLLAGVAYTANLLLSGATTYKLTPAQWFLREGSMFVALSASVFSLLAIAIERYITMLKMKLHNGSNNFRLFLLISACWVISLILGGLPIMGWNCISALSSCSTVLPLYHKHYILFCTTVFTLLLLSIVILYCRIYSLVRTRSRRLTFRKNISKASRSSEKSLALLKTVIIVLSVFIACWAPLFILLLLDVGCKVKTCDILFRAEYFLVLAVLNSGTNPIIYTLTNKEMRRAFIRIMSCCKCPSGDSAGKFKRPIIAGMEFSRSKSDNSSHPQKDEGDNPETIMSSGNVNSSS

The target in experiment [2] is T1, human sphingosine-1-phosphate receptor 1 (S1P1). The experiment is described as follows: β-Arrestin2 recruitment assay (PathHunter), S1P1 CHO-K1 cells. The experiment is classed as cell-based. The procedure:
Stable clonal Chinese hamster ovary K1 (CHO-K1) cells co-expressing EA-β-arrestin2 and the human sphingosine-1-phosphate receptor 1 (NM_001400, S1P1) with a C-terminal Prolink™ tag were purchased from DiscoverX corporation (Cat #: 93-0207C2).
Cell lines were cultured in AssayComplete™ Media 6 (DiscoverX Corporation, Cat #: 920018GF2) at 37° C. and 5% CO2 in a humidified CO2 and temperature-controlled incubator. To begin assay plating, cells were washed with Dulbecco's phosphate buffered saline (CellGro, Cat #: 21-031-CV) and lifted from the culturing flask by incubation (37° C., 5 min) with CellStripper (Cellgro, Cat #: 25-056-CI). […] Plated cells were incubated overnight at 37° C. and 5% CO2 in a humidified CO2 and temperature-controlled incubator.
Agonist-promoted β-arrestin2 recruitment to the sphingosine-1-phosphate 1 receptor was determined using the β-arrestin PathHunter® Detection kit (DiscoverX Corporation, Cat #: 93-0001). […] In cells that stably express these fusion proteins, stimulation with a cognate agonist results in the interaction of β-arrestin2 and the Prolink™-tagged GPCR. This allows the complementation of the two β-galactosidase fragments and results in the formation of a functional enzyme with β-galactosidase activity. […] Following a 60 minute incubation at 37° C. and 5% CO2 in a humidified CO2 and temperature-controlled incubator, the components of the β-arrestin PathHunter® Detection kit were added as per the manufacturer's instructions. After an hour incubation at room temperature, plates were analyzed by a BMG PheraStar microplate reader.
These values are normalized to fingolimod, a known agonist of the sphingosine-1-phosphate 1 receptor.
Target sequence in this assay (P21453 whole entry): as above
Target sequence in this assay (P32121 whole entry partner): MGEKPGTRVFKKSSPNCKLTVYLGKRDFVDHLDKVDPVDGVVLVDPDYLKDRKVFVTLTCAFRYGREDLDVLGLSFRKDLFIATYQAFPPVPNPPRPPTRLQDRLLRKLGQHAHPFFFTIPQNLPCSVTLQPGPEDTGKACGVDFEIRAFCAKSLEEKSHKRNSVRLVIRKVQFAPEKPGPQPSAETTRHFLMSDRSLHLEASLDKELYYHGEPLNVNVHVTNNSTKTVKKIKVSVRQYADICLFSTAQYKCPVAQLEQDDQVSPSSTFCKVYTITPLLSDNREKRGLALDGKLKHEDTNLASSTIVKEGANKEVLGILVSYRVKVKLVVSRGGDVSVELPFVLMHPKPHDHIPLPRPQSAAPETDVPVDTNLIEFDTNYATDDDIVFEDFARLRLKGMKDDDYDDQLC
For orientation: Recruitment of arrestin is a read-out of receptor activation apart from second messengers.

Setting [3] is: CHO-K1, inhibition of cAMP production, efficacy normalized to maximum efficacy of fingolimod, read-out: hS1P1 CAMP SPAN.
Where [4] appears, read: inhibition of cAMP production, potency, read-out: hS1P1 CAMP pEC50 (converted).
The mark [5] stands for this setting: CHO-K1, β-arrestin2 recruitment, efficacy normalized to maximum efficacy of fingolimod, read-out: hS1P1 B-arrestin2 SPAN.
[6] abbreviates: β-arrestin2 recruitment, potency, read-out: hS1P1 B-arrestin2 pEC50 (converted).

Take `Fc1cc(-c2noc(-c3ccc4c(c3)nnn4C3CCCC3)n2)ccc1C(F)(F)F` [Compound 1, 1-cyclopentyl-5-{3-[3-fluoro-4-(trifluoro-methyl)phenyl]-1,2,4-oxadiazol-5-yl}-1H-1,2,3-benzotriazole]: the Emax in experiment [1] (setting [3]) and in experiment [2] (setting [5]) was below 75% in each case. Further, the results for the EC50 in experiment [1] (setting [4]) and in experiment [2] (setting [6]) were above 0.316 µM and above 10 µM, respectively.
Consider `CCn1nnc2cc(-c3noc(-c4ccccc4Br)n3)ccc21` [Compound 2, 5-(2-bromophenyl)-3-(1-ethyl-1H-benzo[d][1,2,3]triazol-5-yl)-1,2,4-oxadiazole], for which the EC50 in experiment [2] (setting [6]) is below 10 µM.
As to `Cc1ccncc1-c1noc(-c2ccc3nnn(CC(C)C)c3c2)n1` [Compound 3, 1-(2-methylpropyl)-6-[3-(4-methylpyridin-3-yl)-1,2,4-oxadiazol-5-yl]-1H-1,2,3-benzotriazole], the Emax in experiment [1] (setting [3]) and in experiment [2] (setting [5]) was above 75% throughout. The EC50 is below 0.316 µM in experiment [1] (setting [4]) and below 10 µM in experiment [2] (setting [6]).
`CCCn1nnc2cc(-c3nc(-c4ccc(F)cc4)no3)ccc21` [Compound 5, 5-[3-(4-fluorophenyl)-1,2,4-oxadiazol-5-yl]-1-propyl-1H-1,2,3-benzotriazole]: the Emax in experiment [1] (setting [3]) and in experiment [2] (setting [5]) was below 75% throughout. In addition, the figures for the EC50 in experiment [1] (setting [4]) and in experiment [2] (setting [6]) were above 0.316 µM and above 10 µM, respectively.
As to `c1ccc(-c2noc(-c3ccc4c(c3)nnn4C3CCCC3)n2)cc1` [Compound 7, 1-cyclopentyl-5-(3-phenyl-1,2,4-oxadiazol-5-yl)-1H-1,2,3-benzotriazole], the Emax in experiment [1] (setting [3]) and in experiment [2] (setting [5]) was above 75% throughout. For the same compound, the EC50 in experiment [1] (setting [4]) was above 0.316 µM; in experiment [2] (setting [6]), above 10 µM.
For the compound `CC(C)n1nnc2cc(-c3nc(-c4ccc(-c5ccccc5)cn4)no3)ccc21` [Compound 9, 5-[3-(5-phenylpyridin-2-yl)-1,2,4-oxadiazol-5-yl]-1-(propan-2-yl)-1H-1,2,3-benzotriazole], the Emax in experiment [1] (setting [3]) and in experiment [2] (setting [5]) was below 75% throughout. In addition, the EC50 in experiment [1] (setting [4]) was above 0.316 µM; in experiment [2] (setting [6]), above 10 µM.
With `FC(F)(F)Oc1cccc(-c2nc(-c3ccc4c(c3)nnn4C3CCCC3)no2)c1` [Compound 10, 3-(1-cyclopentyl-1H-benzo[d][1,2,3]triazol-5-yl)-5-(3-(trifluoro-methoxy)phenyl)-1,2,4-oxadiazole], the EC50 in experiment [1] is above 0.316 µM; in experiment [2], above 10 µM. In addition, the Emax in experiment [1] (CHO-K1, read-out: hS1P1 CAMP SPAN) is below 75%; in experiment [2] (CHO-K1, read-out: hS1P1 B-arrestin2 SPAN) it was below 75%.
Regarding `Cc1cccc(-c2noc(-c3ccc4c(c3)nnn4C3CCCCC3)n2)c1` [Compound 11, 1-cyclohexyl-5-[3-(3-methylphenyl)-1,2,4-oxadiazol-5-yl]-1H-1,2,3-benzotriazole], the Emax in experiment [1] (setting [3]) and in experiment [2] (setting [5]) was below 75% in each case. The figures for the EC50 in experiment [1] (setting [4]) and in experiment [2] (setting [6]) were above 0.316 µM and above 10 µM, respectively.
For the compound `FC(F)(F)c1cccc(-c2nc(-c3ccc4c(c3)nnn4C3CCCC3)no2)c1` [Compound 12, 3-(1-cyclopentyl-1H-benzo[d][1,2,3]triazol-5-yl)-5-(3-(trifluoro-methyl)phenyl)-1,2,4-oxadiazole], the Emax in experiment [1] (setting [3]) and in experiment [2] (setting [5]) was below 75% throughout. Also, the EC50 is above 0.316 µM in experiment [1] (setting [4]) and above 10 µM in experiment [2] (setting [6]).
Take `Oc1ccc(-c2noc(-c3ccc4c(c3)nnn4C3CCCC3)n2)cc1` [Compound 13, 4-[5-(1-cyclopentyl-1H-1,2,3-benzotriazol-5-yl)-1,2,4-oxadiazol-3-yl]phenol]: the Emax in experiment [1] (setting [3]) and in experiment [2] (setting [5]) was below 75% throughout. The figures for the EC50 in experiment [1] (setting [4]) and in experiment [2] (setting [6]) were below 0.316 µM and below 10 µM, respectively.
Take `CC(C)n1nnc2cc(-c3nc(-c4ccc(Oc5ccccc5)cc4)no3)ccc21` [Compound 15, 5-[3-(4-phenoxyphenyl)-1,2,4-oxadiazol-5-yl]-1-(propan-2-yl)-1H-1,2,3-benzotriazole]: the Emax in experiment [1] (setting [3]) was above 75%; in experiment [2] (setting [5]), below 75%. In addition, the EC50 in experiment [1] (setting [4]) was above 0.316 µM; in experiment [2] (setting [6]), above 10 µM.
In the case of `CSc1ccccc1-c1nc(-c2ccc3c(c2)nnn3C2CCCC2)no1` [Compound 16, 3-(1-cyclopentyl-1H-benzo[d][1,2,3]triazol-5-yl)-5-(2-(methylthio)phenyl)-1,2,4-oxadiazole], the Emax in experiment [1] (setting [3]) was below 75%; in experiment [2] (setting [5]), above 75%. The EC50 in experiment [1] (setting [4]) was above 0.316 µM; in experiment [2] (setting [6]), below 10 µM.
On the same counts, the results for `CC(C)n1nnc2cc(-c3nc(-c4ccccc4Cl)no3)ccc21` [Compound 17] are above 75%, above 75%, below 0.316 µM and below 10 µM.
For `CC(C)n1nnc2cc(-c3noc(C4CCC4)n3)ccc21` [Compound 18, 5-(5-cyclobutyl-1,2,4-oxadiazol-3-yl)-1-(propan-2-yl)-1H-1,2,3-benzotriazole], the Emax in experiment [1] (setting [3]) and in experiment [2] (setting [5]) was below 75% in each case. The results for the EC50 in experiment [1] (setting [4]) and in experiment [2] (setting [6]) were above 0.316 µM and above 10 µM, respectively.
`CC(C)Oc1ccc(-c2noc(-c3ccc4c(c3)nnn4C(C)C)n2)cc1C(F)(F)F` [Compound 20, 3-(4-isopropoxy-3-(trifluoromethyl)phenyl)-5-(1-isopropyl-1H-benzo[d][1,2,3]triazol-5-yl)-1,2,4-oxadiazole]: the Emax in experiment [1] (setting [3]) and in experiment [2] (setting [5]) was above 75% each time. Also, the values for the EC50 in experiment [1] (setting [4]) and in experiment [2] (setting [6]) were below 0.316 µM and below 10 µM, respectively.
For `CC(C)n1nnc2cc(-c3nc(-c4ccccc4F)co3)ccc21` [Compound 21, 5-[4-(2-fluorophenyl)-1,3-oxazol-2-yl]-1-(propan-2-yl)-1H-1,2,3-benzotriazole], the Emax in experiment [1] (setting [3]) and in experiment [2] (setting [5]) was above 75% in each case. Also, the EC50 in experiment [1] (setting [4]) is above 0.316 µM; in experiment [2] (setting [6]), above 10 µM.
Turning to `CC(C)n1nnc2cc(-c3noc(-c4cccc(COc5ccccc5)c4)n3)ccc21` [Compound 23, 3-(1-isopropyl-1H-benzo[d][1,2,3]triazol-5-yl)-5-(3-(phenoxy-methyl)phenyl)-1,2,4-oxadiazole], the Emax in experiment [1] (setting [3]) and in experiment [2] (setting [5]) was below 75% in each case. Besides, the EC50 in experiment [1] (setting [4]) is above 0.316 µM; in experiment [2] (setting [6]), above 10 µM.
Turning to `OCCCn1nnc2cc(-c3noc(-c4ccccc4Br)n3)ccc21` [Compound 24, 3-(5-(5-(2-bromophenyl)-1,2,4-oxadiazol-3-yl)-1H-benzo[d][1,2,3]triazol-1-yl)propan-1-ol], the figures for the Emax in experiment [1] (setting [3]) and in experiment [2] (setting [5]) were above 75% and below 75%, respectively. Moreover, the values for the EC50 in experiment [1] (setting [4]) and in experiment [2] (setting [6]) were above 0.316 µM and above 10 µM, respectively.
With `CC(C)c1ccc(-c2nc(-c3ccc4c(c3)nnn4C(C)C)no2)cn1` [Compound 25, 3-(1-isopropyl-1H-benzo[d][1,2,3]triazol-5-yl)-5-(6-isopropyl-pyridin-3-yl)-1,2,4-oxadiazole], the Emax in experiment [1] (setting [3]) and in experiment [2] (setting [5]) was below 75% each time. Also, the EC50 in experiment [1] (setting [4]) was above 0.316 µM; in experiment [2] (setting [6]), above 10 µM.
Regarding `CCC1(CC)CC(=O)c2cc(-c3nc(-c4ccc5c(c4)nnn5C(C)C)ns3)ccc2O1` [Compound 29, 2,2-diethyl-6-(3-(1-isopropyl-1H-benzo[d][1,2,3]triazol-5-yl)-1,2,4-thiadiazol-5-yl)chroman-4-one], the Emax in experiment [1] (setting [3]) and in experiment [2] (setting [5]) was below 75% each time. Moreover, the EC50 was above 0.316 µM in experiment [1] (setting [4]) and above 10 µM in experiment [2] (setting [6]).

These data come from US20230114241A1, “METHODS OF TREATING EPILEPSY USING THE SAME” (Trevena, Inc., priority 2019, published 2023).
